Measurements taken from patent US10370642B2, “Hematopoietic progenitor cell populations having affinity for E-selectin / L-selectin” (priority 2000, dated 2019).

Key:
L-selectin [1] = test: Stamper-Woodruff assay, lymphocyte adherence to immunoprecipitated CD44 and PSGL-1; assay type: cell-based, rat; conditions: equimolar amounts; from 40 to 100 rpm
L-selectin [2] = test: Stamper-Woodruff assay of immunoprecipitated KG1a CD44 (Example 7); assay type: cell-based; conditions: immunoprecipitate spotted onto glass slides
Source text: To further analyze the L-selectin ligand activity of CD44, we performed Stamper-Woodruff assays using immunoprecipitated CD44 or isotype control (rat lgG)
immunoprecipitates of KG1 a cells that was spotted onto glass slides as described (Sackstein, R. & Dimitroff, C. J. (2000). Blood. 96, 2765-2774).

E-selectin = molecular target: T1, E-selectin (Homo sapiens, UniProt P16581); test: CHO-E cell rolling on immobilized immunoprecipitates, parallel-plate flow chamber; assay type: cell-based; conditions: immunoprecipitates on plastic; 2.8 dynes/cm^2
T1 construct: stably transfected with full-length cDNA encoding human E-selectin; expressed in transfected cells
T1 sequence (P16581 22-610): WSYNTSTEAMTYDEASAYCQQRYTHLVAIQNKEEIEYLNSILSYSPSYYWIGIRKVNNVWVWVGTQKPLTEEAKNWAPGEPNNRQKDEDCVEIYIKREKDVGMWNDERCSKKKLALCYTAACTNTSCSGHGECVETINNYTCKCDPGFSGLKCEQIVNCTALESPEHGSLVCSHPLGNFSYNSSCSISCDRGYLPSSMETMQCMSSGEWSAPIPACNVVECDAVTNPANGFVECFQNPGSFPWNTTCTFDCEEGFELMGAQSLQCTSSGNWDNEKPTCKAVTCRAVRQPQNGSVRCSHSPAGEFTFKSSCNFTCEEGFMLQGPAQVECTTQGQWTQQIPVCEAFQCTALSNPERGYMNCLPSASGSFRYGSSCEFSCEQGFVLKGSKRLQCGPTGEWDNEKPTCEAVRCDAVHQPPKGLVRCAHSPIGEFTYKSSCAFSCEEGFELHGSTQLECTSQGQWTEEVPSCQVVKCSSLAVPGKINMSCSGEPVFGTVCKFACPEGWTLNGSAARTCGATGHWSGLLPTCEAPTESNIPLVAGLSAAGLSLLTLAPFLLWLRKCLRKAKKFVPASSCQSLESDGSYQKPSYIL
Procedure: CD44 was immunoprecipitated from untreated cell lysates or from cell lysates treated with N-glycosidase-F (0.8 U/ml) Vibrio cholerae neuraminidase (0.1 U/ml) or a-L-fucosidase (80 mU/ml), and PSGL-1 was immunoprecipitated from untreated cell lysates as previously described (Sackstein and Dimitroff, 2000; Dimitroff et al., 2000).
CD44 or PSGL-1 immunoprecipitates were spotted onto plastic petri dishes, fixed in 3% glutaraldehyde and incubated in 0.2M lysine to block unreactive aldehyde groups, and then non-specific binding was prevented by incubating in 100% FBS for 1 hr at RT. Fixed spots were also treated with Vibrio cholerae neuraminidase (0.1 U/ml assay medium), which was overlaid onto the spots and incubated at 37° C. for 1 hr. […] The flow rate was then increased to achieve a shear stress of 2.8 dynes/cm^2. The frequency of cells rolling per 100× magnification field was determined, and data were expressed as the mean±standard deviation of 8 fields visualized from a minimum of 3 experiments.

L-selectin [3] = test: Blot rolling assay with L-selectin-expressing lymphocytes; assay type: cell-based; conditions: 2.3 dynes/cm^2
Procedure: L-selectin-expressing lymphocytes were isolated as previously described (Oxley, S. M. & Sackstein, R. (1994). Blood. 84:3299-3306; Sackstein, R., Fu, L. and Allen, K. L. (1997) Blood. 89:2773-2781), washed twice in HBSS and suspended at 2×10^7/ml in HBSS/10 mM HEPES/2mMCaCl2 (H/H/Ca^++)/10% glycerol. Cell lysate material is separated by SDS-PAGE and transferred to PVDF under standard blotting conditions. Western blots of KG1a membrane preparations stained with HECA-452, A3D8 or Hermes-1 were rendered transparent by incubating them in H/H/Ca^++/10% glycerol. To study L-selectin-mediated adhesive interactions, the blots were placed in the parallel plate flow chamber and lymphocytes were perfused into the chamber at a shear force of 2.3 dynes/cm^2 and cellular adhesive interactions are observed by video microscopy and analyzed in real time.
The number of lymphocytes rolling on and between each immunostained banding region was quantified from five independent fields under 200× magnification on the video monitor using molecular weight markers as guides to help align and visualize the proteins of interest. A minimum of 3 experiments were performed, and results were expressed as the mean of cell rolling/field.

P-selectin = molecular target: T2, P-selectin (Homo sapiens, UniProt P16109); test: CHO-P cell rolling on immobilized immunoprecipitates, parallel-plate flow chamber; assay type: cell-based; conditions: 2.8 dynes/cm^2
T2 construct: CHO-P (CHO stably transfected with human cDNA encoding full length P-selectin); expressed in transfected cells
T2 sequence (P16109 42-830): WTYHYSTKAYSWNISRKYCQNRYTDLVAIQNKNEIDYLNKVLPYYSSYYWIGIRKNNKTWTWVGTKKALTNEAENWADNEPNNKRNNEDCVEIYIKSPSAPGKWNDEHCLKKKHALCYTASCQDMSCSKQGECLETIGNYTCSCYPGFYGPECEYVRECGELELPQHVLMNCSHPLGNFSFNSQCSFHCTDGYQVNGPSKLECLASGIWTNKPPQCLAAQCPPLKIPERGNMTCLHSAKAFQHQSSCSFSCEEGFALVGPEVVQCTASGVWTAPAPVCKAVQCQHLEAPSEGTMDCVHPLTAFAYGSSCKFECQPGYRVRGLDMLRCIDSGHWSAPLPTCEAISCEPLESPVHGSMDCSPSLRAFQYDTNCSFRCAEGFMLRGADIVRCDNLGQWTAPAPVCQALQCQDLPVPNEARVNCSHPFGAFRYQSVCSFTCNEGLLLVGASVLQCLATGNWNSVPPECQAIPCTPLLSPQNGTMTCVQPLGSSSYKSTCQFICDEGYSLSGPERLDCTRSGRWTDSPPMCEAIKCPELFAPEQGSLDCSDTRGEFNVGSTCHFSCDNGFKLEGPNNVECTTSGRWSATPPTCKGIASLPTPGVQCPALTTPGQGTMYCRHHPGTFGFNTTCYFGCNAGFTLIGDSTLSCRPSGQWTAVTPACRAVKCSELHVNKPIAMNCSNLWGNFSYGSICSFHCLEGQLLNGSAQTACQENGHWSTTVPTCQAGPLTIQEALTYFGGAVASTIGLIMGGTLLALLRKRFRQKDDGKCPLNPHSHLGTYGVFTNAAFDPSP
Procedure: CD44 or PSGL-1 immunoprecipitates were spotted onto plastic petri dishes, fixed in 3% glutaraldehyde and incubated in 0.2M lysine to block unreactive aldehyde groups, and then non-specific binding was prevented by incubating in 100% FBS for 1 hr at RT. Fixed spots were also treated with Vibrio cholerae neuraminidase (0.1 U/ml assay medium), which was overlaid onto the spots and incubated at 37° C. for 1 hr. The protein dishes were placed in the parallel-plate flow chamber and CHO-E, CHO-P (CHO stably transfected with human cDNA encoding full length P-selectin), CHO-P cells treated with function blocking anti-P-selectin moAb (clone AK-4; Pharmingen) (10 μg/ml), CHO-E cells treated with function blocking anti-E-selectin Abs (10 μg/ml) (clone 68-5H1 1) or Mock transfectants were perfused into the chamber (2×10^6/ml H/H/Ca++) at a flow rate of 0.2 ml/min until the cells were in contact with the substrate. The flow rate was then increased to achieve a shear stress of 2.8 dynes/cm^2. The frequency of cells rolling per 100× magnification field was determined, and data were expressed as the mean±standard deviation of 8 fields visualized from a minimum of 3 experiments.

KG1a CD44: glycoform of CD44 with HECA-452 reactive sialylated, fucosylated N-glycans, immunoprecipitated from KG1a cells with Hermes-1
fold higher lymphocyte adherence compared with PSGL-1 (L-selectin [1]): 5- to 10 fold | L-selectin-mediated lymphocyte adherence (L-selectin [2]): 362±15 bound cells/field | E-selectin ligand activity (CHO-E cell rolling) (E-selectin): exhibited E-selectin ligand activity over a range of shear stress | L-selectin ligand activity (lymphocyte tethering and rolling) in blot rolling assay (L-selectin [3]): supported L-selectin ligand interactions | P-selectin ligand activity (CHO-P cell rolling) (P-selectin): not a P-selectin ligand
